The text below walks through data of US9351963B2, “Defensin-like molecules as novel antimicrobial agents” (UNIVERSITY OF MARYLAND, BALTIMORE, priority 2010, dated 2016).

In assay [1] the test system is Staphylococcus aureus ATCC 29213. To be noted: previously reported (Wei et al., J Biol Chem 285); cited from earlier work.
A short description of assay [2]: Surface Plasmon Resonance binding to immobilized 3-Lipid II (BIAcore). The note with it: SPR, 10 μM, room temperature, 40 RUs 3-Lipid II. On the procedure:
Short-chain water-soluble Lipid II containing a lipid tail of three isoprene units was generated and purified essentially as described (Breukink, E., van Heusden, H. E., Vollmerhaus, P. J., Swiezewska, E., Brunner, L., Walker, S., Heck, A. J., and de Kruijff, B. (2003) J Biol Chem 278, 19898-19903). Typically, M. flavus vesicles (120 μmol lipid-Pi) were incubated together with 500 μmol UDP-GlcNAc, 500 μmol UDP-MurNAC-pentapeptide and 400 μmol farnesyl phosphate (3-P) in 100 mM Tris-HCl pH 8.0, 5 mM MgCl2. The incubation lasted two hours at room temperature for 3-P. The synthesis of 3-Lipid II was followed using RP-8 reversed phase TLC (Merck) developed in 75% methanol. For purification, the membranes were removed by centrifugation at 40,000×g and the supernatant was collected and loaded on a C18 HPLC column and eluted with a linear gradient from 50 mM ammonium bicarbonate to 100% methanol in 30 minutes. Farnesyl-Lipid II (3-Lipid II) eluted at approximately 60% methanol. Its identity was confirmed by mass spectroscopy.
Surface Plasmon Resonance binding experiments were carried out on a BIAcore T100 system (BIAcore Inc., Piscataway, N.Y.) at 25° C. The assay buffer was 10 mM HEPES, 150 mM NaCl, 0.05% surfactant P20, pH 7.4 (±3 mM EDTA) supplemented with 10% DMSO. […] For initial determination of binding, defensin mimetics were introduced into the flow-cells (30 μl/min) in the running buffer at 10 μM. Resonance signals were corrected for nonspecific binding by subtracting the background of the control flow-cell. After each analysis, the sensor chip surfaces were regenerated with 50 mM NaOH for 30 s at a flow rate 100 μl/min, and equilibrated with the buffer prior to next injection. For binding kinetics studies, binding isotherms were analyzed with manufacturer-supplied software for BIAcore T100.
(In general: Surface plasmon resonance follows binding to a sensor surface in real time, without labels.)

The subject of assay [3] is Escherichia coli ATCC 25922. The assay can be described thus: 96-well turbidimetric antibacterial killing assay, E. coli. It counts as cell-based. The note with it: E. coli ATCC 25922, 120 min exposure. On the procedure: The antibacterial activity of defensin mimetics against Staphylococcus aureus ATCC 29213 and Escherichia coli 25922 was carried out in a 96-well turbidimetric assay essentially as described (Ericksen, B., Wu, Z., Lu, W., and Lehrer, R. I. (2005) Antimicrob Agents Chemother 49, 269-275) with the following modifications: compounds were exposed for 30 min to […] prior to addition of […] in 10 mM phosphate buffer containing 5% DMSO. Bacterial growth was monitored for 12 hours and data were analyzed as described (Ericksen, et al). Determination of MICs was performed by Micromyx, LLC (Kalamazoo, Mich.) according to CLSI standards (CLSI. (2009) Methods for Dilution Antimicrobial Susceptibility Tests for Bacteria That Grow Aerobically; Approved Standard—Eighth Edition.)
The inventors have previously reported on the antibacterial activity of HNP1 and all of its structurally uncompromised single alanine mutants against S. aureus (Wei, G., Pazgier, M., de Leeuw, E., Rajabi, M., Li, J., Zou, G., Jung, G., Yuan, W., Lu, W. Y., Lehrer, R. I., and Lu, W. J Biol Chem 285, 16275-16285). […] If these residues are indeed important for Lipid II binding, one would expect that replacement by alanine will not affect killing of Gram-negative bacteria. […] In particular, FIG. 12 depicts killing of E. coli by HNP-1 Lipid II single alanine mutants. Survival curves of E. coli ATCC 25922 exposed to HNP-1 or HNP-1 single alanine mutants at concentrations varying two-fold from […]. Bacteria were exposed to defensin peptides for 120 min. Each curve is the mean of two separate experiments (±S.D.). Points scored as zero survival could not be plotted.

“Arg15: HNP-1 single alanine mutant, Arg15 replaced by alanine”: the “Killing of S. aureus by HNP-1 single alanine mutants” value in assay [1] was “severely compromised”. For the same substance, the “Binding of HNP-1 single alanine mutants to Lipid II compared to wild-type HNP-1” value in assay [2] is on record as “significant reduction of binding”. Moreover, the “Bactericidal activity against E. coli relative to wild-type HNP-1” value in assay [3] is “exception”.

As to “Ile20: HNP-1 single alanine mutant, Ile20 replaced by alanine”, the “Killing of S. aureus by HNP-1 single alanine mutants” value in assay [1] is given as “severely compromised”. The “Binding of HNP-1 single alanine mutants to Lipid II compared to wild-type HNP-1” value in assay [2] was “significant reduction of binding”. Further, in assay [3], the “Bactericidal activity against E. coli relative to wild-type HNP-1” value is on record as “comparable to the wild-type peptide”.
